Data from ChEMBL document CHEMBL5678818, “Discovery of potent SOS1 inhibitors that block RAS activation via disruption of the RAS-SOS1 interaction” (Proc Natl Acad Sci U S A, 2019).

Columns and labels:
[1] = biological target: MAP kinase-interacting serine/threonine-protein kinase 2 (Homo sapiens) (UniProt Q9HBH9); assay: Inhibition of MKNK2 (unknown origin) assessed as residual activity at 100 nM by KINOMEscan analysis relative to control
Homo sapiens = organism: Homo sapiens; assay: Inhibition of N-terminal GST-tagged recombinant human SOS1 L901K mutant (564 to 1049 residues) expressed in Escherichia coli assessed as reduction in KRAS G12C mutant activation at 10 uM by HTRF analysis relative to control
[2] = biological target: RAC-alpha serine/threonine-protein kinase (Homo sapiens) (UniProt P31749); assay: Inhibition of AKT1 (unknown origin) assessed as residual activity at 100 nM by KINOMEscan analysis relative to control
[3] = tested on: Receptor-type tyrosine-protein kinase FLT3 (Homo sapiens), P36888 [D835Y]; assay: Inhibition of FLT3 D835Y mutant (unknown origin) assessed as residual activity at 100 nM by KINOMEscan analysis relative to control
[4] = tested on: eIF-2-alpha kinase GCN2 (Homo sapiens), Q9P2K8 [S808G]; assay: Inhibition of GCN2 S808G mutant […] domain (unknown origin) assessed as residual activity at 100 nM by KINOMEscan analysis relative to control
[5] = biological target: Epidermal growth factor receptor (Homo sapiens, UniProt P00533); assay: Inhibition of EGFR (unknown origin) assessed as residual activity at 100 nM by KINOMEscan analysis relative to control
[6] = biological target: Serine/threonine-protein kinase MRCK gamma (Homo sapiens) (UniProt Q6DT37); assay: Inhibition of DMPK2 (unknown origin) assessed as residual activity at 100 nM by KINOMEscan analysis relative to control
[7] = tested on: Tyrosine-protein kinase ABL1 (Homo sapiens), P00519 [T315I]; assay: Inhibition of nonphosphorylated ABL1 T315I mutant (unknown origin) assessed as residual activity at 100 nM by KINOMEscan analysis relative to control
[8] = biological target: Macrophage colony-stimulating factor 1 receptor (Homo sapiens) (UniProt P07333); assay: Inhibition of CSF1R (unknown origin) assessed as residual activity at 100 nM by KINOMEscan analysis relative to control
[9] = biological target: T1, Mitogen-activated protein kinase 13 (Homo sapiens) (UniProt O15264); assay: Inhibition of p38-delta (unknown origin) assessed as residual activity at 100 nM by KINOMEscan analysis relative to control
T1 sequence (whole entry): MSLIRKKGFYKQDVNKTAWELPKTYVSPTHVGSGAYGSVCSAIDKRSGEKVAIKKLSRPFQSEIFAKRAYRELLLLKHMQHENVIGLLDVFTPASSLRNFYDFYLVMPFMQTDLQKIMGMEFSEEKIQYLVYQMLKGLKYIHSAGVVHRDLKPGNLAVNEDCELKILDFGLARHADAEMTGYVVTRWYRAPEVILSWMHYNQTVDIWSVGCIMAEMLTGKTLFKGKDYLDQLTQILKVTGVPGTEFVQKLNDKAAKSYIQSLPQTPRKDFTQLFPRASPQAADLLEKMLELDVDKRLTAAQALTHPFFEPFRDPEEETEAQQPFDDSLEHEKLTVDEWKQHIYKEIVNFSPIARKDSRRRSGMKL

[10] = tested on: Phosphatidylinositol 4,5-bisphosphate 3-kinase catalytic subunit alpha isoform (Homo sapiens), P42336 [E542K]; assay: Inhibition of PIK3CA E542K mutant (unknown origin) assessed as residual activity at 100 nM by KINOMEscan analysis relative to control
[11] = biological target: Serine/threonine-protein kinase 25 (Homo sapiens) (UniProt O00506); assay: Inhibition of YSK1 (unknown origin) assessed as residual activity at 100 nM by KINOMEscan analysis relative to control
[12] = biological target: Leukocyte tyrosine kinase receptor (Homo sapiens) (UniProt P29376); assay: Inhibition of LTK (unknown origin) assessed as residual activity at 100 nM by KINOMEscan analysis relative to control
[13] = biological target: RAF proto-oncogene serine/threonine-protein kinase (Homo sapiens) (UniProt P04049); assay: Inhibition of RAF1 (unknown origin) assessed as residual activity at 100 nM by KINOMEscan analysis relative to control
[14] = biological target: Serine/threonine-protein kinase 32B (Homo sapiens) (UniProt Q9NY57); assay: Inhibition of YANK2 (unknown origin) assessed as residual activity at 100 nM by KINOMEscan analysis relative to control
[15] = biological target: Death-associated protein kinase 3 (Homo sapiens) (UniProt O43293); assay: Inhibition of DAPK3 (unknown origin) assessed as residual activity at 100 nM by KINOMEscan analysis relative to control
[16] = biological target: STE20/SPS1-related proline-alanine-rich protein kinase (Homo sapiens) (UniProt Q9UEW8); assay: Inhibition of STK39 (unknown origin) assessed as residual activity at 100 nM by KINOMEscan analysis relative to control
[17] = biological target: Calcium/calmodulin-dependent protein kinase type II subunit beta (Homo sapiens) (UniProt Q13554); assay: Inhibition of CAMK2B (unknown origin) assessed as residual activity at 100 nM by KINOMEscan analysis relative to control
[18] = biological target: Homeodomain-interacting protein kinase 3 (Homo sapiens) (UniProt Q9H422); assay: Inhibition of HIPK3 (unknown origin) assessed as residual activity at 100 nM by KINOMEscan analysis relative to control
[19] = biological target: T2, Receptor-interacting serine/threonine-protein kinase 1 (Homo sapiens) (UniProt Q13546); assay: Inhibition of RIPK1 (unknown origin) assessed as residual activity at 100 nM by KINOMEscan analysis relative to control
T2 sequence (whole entry): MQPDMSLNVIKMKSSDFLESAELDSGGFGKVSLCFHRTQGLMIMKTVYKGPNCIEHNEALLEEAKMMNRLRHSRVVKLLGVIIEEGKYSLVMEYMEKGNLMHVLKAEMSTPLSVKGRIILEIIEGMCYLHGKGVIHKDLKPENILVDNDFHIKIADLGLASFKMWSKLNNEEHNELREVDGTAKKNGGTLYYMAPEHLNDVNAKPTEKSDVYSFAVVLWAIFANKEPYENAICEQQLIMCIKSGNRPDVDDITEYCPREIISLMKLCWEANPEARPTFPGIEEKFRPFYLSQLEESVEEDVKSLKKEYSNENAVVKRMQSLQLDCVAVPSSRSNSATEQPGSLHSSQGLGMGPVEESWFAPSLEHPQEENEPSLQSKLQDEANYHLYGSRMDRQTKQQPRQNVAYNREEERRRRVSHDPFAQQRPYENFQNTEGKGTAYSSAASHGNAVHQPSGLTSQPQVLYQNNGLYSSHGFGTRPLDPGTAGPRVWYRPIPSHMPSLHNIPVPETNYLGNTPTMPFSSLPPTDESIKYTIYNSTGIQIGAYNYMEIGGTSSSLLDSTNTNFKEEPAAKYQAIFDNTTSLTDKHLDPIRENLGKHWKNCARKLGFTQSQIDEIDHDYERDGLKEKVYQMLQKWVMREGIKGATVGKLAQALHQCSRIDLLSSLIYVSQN

[20] = tested on: Tyrosine-protein kinase ABL1 (Homo sapiens), P00519 [T315I]; assay: Inhibition of phosphorylated ABL1 T315I mutant (unknown origin) assessed as residual activity at 100 nM by KINOMEscan analysis relative to control

Calcium/calmodulin-dependent protein kinase type II subunit beta (Homo sapiens), sequence (Q13554 whole entry): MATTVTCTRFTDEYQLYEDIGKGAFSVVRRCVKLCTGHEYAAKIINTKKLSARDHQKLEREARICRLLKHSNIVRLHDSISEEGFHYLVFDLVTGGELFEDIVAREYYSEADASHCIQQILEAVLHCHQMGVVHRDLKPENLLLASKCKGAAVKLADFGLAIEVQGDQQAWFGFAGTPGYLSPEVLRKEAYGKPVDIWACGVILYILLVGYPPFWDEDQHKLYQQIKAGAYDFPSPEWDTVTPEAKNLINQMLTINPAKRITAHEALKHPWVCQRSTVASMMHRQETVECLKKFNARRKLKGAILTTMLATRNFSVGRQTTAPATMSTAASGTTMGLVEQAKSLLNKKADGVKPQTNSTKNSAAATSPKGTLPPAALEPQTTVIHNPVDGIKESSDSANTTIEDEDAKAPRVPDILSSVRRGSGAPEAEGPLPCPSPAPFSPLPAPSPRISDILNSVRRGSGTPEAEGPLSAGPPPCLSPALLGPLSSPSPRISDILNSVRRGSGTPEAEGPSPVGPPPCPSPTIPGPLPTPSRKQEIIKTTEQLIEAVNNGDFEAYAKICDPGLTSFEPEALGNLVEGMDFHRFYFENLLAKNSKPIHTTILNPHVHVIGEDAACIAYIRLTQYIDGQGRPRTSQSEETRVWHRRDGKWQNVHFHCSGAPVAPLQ
Epidermal growth factor receptor, sequence (P00533 whole entry): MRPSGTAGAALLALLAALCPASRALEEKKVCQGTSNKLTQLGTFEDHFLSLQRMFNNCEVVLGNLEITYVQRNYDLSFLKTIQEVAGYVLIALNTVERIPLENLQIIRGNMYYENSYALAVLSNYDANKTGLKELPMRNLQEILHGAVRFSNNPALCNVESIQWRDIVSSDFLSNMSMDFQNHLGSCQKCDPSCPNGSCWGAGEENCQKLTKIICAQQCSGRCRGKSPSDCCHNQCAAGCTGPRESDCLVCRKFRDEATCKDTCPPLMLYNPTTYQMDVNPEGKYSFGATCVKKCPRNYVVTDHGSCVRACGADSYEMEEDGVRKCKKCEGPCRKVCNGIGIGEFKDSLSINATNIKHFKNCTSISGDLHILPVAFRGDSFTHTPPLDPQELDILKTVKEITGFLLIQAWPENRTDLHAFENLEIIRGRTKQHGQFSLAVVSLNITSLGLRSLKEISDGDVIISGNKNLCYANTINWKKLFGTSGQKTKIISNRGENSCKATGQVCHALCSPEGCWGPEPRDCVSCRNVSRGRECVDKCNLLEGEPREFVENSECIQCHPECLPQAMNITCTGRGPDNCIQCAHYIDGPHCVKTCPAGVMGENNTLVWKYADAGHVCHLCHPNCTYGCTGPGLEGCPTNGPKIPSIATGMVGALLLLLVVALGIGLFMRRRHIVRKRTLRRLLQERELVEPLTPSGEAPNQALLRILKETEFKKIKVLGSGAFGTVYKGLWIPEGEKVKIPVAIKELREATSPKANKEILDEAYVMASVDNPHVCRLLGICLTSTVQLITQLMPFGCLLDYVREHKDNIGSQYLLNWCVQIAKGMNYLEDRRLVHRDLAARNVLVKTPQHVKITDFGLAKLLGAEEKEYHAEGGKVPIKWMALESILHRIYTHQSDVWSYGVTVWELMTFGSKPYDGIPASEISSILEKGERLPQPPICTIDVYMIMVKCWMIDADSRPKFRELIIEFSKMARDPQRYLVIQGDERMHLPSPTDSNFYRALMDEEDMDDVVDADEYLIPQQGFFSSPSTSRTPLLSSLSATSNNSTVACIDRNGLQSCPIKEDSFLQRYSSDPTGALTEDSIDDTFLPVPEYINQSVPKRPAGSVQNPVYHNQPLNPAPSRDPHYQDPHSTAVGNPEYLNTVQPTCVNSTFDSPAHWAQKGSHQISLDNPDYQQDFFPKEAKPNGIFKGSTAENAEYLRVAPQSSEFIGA
Serine/threonine-protein kinase MRCK gamma (Homo sapiens), sequence (Q6DT37 whole entry): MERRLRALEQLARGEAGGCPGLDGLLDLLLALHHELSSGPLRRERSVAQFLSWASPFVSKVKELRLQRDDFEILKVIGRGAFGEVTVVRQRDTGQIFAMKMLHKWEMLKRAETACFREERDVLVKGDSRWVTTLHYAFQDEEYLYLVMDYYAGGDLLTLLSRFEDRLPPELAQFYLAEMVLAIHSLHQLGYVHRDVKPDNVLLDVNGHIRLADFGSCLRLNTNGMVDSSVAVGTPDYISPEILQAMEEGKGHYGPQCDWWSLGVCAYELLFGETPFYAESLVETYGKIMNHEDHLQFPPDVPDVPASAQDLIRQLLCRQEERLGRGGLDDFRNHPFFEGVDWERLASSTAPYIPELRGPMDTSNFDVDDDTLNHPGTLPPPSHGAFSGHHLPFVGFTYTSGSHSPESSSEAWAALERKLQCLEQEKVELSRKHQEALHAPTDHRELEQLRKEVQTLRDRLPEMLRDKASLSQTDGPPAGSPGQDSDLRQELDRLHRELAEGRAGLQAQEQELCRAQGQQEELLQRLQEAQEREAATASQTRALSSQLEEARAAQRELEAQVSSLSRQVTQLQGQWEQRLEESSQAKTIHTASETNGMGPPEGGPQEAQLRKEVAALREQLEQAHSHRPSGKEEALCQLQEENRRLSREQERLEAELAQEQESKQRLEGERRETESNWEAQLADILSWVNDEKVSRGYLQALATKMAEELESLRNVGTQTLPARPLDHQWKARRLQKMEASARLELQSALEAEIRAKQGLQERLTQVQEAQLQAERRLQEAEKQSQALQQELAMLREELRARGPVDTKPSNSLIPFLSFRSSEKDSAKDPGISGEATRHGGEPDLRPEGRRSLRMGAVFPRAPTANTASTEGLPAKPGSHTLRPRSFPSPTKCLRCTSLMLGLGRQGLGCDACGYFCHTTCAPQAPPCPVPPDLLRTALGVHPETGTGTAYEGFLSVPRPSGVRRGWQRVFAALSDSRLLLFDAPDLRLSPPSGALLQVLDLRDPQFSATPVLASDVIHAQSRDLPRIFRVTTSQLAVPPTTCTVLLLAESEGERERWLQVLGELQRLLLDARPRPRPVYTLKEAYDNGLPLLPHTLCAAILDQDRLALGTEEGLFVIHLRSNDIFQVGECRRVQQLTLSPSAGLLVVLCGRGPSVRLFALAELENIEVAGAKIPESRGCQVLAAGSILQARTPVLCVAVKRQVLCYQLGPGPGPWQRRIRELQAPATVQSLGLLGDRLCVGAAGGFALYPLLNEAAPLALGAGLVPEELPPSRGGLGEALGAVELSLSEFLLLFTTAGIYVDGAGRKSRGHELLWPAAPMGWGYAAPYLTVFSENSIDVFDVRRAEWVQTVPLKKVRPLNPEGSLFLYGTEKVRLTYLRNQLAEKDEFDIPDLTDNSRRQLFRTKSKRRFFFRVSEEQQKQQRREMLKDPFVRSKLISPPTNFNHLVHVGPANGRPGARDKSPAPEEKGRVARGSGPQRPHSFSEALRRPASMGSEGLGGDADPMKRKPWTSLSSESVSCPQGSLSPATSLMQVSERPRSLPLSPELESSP
RAC-alpha serine/threonine-protein kinase (Homo sapiens), sequence (P31749 whole entry): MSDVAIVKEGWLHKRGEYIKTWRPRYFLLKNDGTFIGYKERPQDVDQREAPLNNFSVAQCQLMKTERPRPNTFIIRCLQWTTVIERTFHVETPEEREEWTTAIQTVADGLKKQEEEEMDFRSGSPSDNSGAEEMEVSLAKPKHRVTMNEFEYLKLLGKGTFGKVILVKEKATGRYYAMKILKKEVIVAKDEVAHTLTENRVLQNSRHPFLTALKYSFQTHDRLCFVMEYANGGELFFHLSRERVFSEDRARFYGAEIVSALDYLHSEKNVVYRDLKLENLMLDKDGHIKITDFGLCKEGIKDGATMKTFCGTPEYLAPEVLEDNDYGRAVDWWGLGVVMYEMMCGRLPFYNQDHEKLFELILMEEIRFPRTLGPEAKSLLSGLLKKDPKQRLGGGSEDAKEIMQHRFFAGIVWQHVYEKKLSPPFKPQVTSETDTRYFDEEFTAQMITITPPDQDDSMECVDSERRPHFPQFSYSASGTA
Phosphatidylinositol 4,5-bisphosphate 3-kinase catalytic subunit alpha isoform (Homo sapiens), P42336 [E542K], sequence (P42336 whole entry E542K, canonical isoform): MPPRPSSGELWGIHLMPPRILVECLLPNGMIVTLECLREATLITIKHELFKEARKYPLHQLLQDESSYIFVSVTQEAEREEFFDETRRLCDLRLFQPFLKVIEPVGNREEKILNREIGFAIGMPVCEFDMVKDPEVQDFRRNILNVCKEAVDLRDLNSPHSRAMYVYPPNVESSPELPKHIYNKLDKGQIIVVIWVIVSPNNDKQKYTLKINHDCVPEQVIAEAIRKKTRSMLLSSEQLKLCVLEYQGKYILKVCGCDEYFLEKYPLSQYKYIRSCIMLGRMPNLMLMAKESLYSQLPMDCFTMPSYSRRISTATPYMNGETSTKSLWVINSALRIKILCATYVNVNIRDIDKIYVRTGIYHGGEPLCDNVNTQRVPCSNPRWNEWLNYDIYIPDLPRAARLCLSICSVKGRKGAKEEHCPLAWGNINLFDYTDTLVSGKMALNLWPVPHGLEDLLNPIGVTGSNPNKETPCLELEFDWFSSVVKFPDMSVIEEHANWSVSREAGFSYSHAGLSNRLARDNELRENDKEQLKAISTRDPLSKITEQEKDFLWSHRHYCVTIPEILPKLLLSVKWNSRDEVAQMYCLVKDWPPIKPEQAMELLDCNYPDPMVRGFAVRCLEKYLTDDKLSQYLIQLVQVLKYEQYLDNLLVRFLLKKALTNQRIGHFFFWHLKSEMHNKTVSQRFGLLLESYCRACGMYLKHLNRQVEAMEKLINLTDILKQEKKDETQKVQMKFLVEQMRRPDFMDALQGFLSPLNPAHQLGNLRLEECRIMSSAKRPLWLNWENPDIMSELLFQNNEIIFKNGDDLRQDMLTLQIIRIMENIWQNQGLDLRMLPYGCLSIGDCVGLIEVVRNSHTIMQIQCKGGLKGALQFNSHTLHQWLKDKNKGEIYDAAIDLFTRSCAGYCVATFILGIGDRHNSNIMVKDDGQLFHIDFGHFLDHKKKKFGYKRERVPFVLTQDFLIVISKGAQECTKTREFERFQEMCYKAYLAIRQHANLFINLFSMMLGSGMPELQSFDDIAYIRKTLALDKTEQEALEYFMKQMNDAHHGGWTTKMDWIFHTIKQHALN

## COc1cc2ncnc(N[C@H](C)c3cccc4ccccc34)c2cc1OC
[1]
  Activity: 89%
Homo sapiens
  inhibition: 38%
[2]
  Activity: 79%
[3]
  Activity: 98%
[4]
  Activity: 100%
[5]
  Activity: 93%
[6]
  Activity: 33%
[7]
  Activity: 100%
[8]
  Activity: 100%
[9]
  Activity: 100%
[10]
  Activity: 74%
[11]
  Activity: 100%
[12]
  Activity: 97%
[13]
  Activity: 85%
[14]
  Activity: 84%
[15]
  Activity: 100%
[16]
  Activity: 93%
[17]
  Activity: 100%
[18]
  Activity: 88%
[19]
  Activity: 23%
[20]
  Activity: 89%
